Remaining activity and IC50 data for 29 compounds are collected here from US20120115852A1, “HETEROCYCLIC COMPOUNDS AS AUTOTAXIN INHIBITORS” (Merck Patent Gesellschaft Mit Beschrankter Haftung, priority 2009, published 2012).

The IC50 is the point on the concentration scale where inhibition reaches its midpoint.

The assay has as its target T1, recombinant autotaxin (Homo sapiens, UniProt Q13822).
T1 construct: made in house; host or cells: Hi5 insect cells (baculovirus)
Description: Autotaxin test (enzyme test), Amplex Red fluorescence with LPC substrate. It is filed as biochemical. Particulars: autotaxin inhibition (enzyme test); for remaining activity at 10 µM: 10 μM compound, read-out: % Control at 10 μM. A digest of the protocol:
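Activity was inferred from H2O2 made from released choline, detected as Amplex Red/peroxidase fluorescence (485 nm excitation, 612 nm emission, kinetic read). Beforehand, Hi5-expressed autotaxin sat with compound 30 min at 22° C, then hydrolysed 75 μM final LPC for 90 min at 37° C, pH 8 Tris buffer.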

For `Cc1ccc(-c2ccc3c(c2)C(=O)N2CCN(C(=O)CC(C)(C)C)CC2C(=O)N3)cc1` (centres unmarked) [Compound A105, 2-(3,3-Dimethylbutyryl)-7-p-tolyl-1,3,4,11a-tetrahydro-2H,10H-2,4a,10-triaza-dibenzo[a,d]cycloheptene-5,11-dione], the remaining activity at 10 µM is 22% and the IC50 was greater than 1 µM. As to `O=C1Nc2ccc(-c3ccc4c(c3)OCO4)cc2C(=O)N2CCN(C(=O)[C@@H]3CSCN3)C[C@H]12` [Compound B9], the remaining activity at 10 µM was 74%. On to `CC(C)(C)CC(=O)N1CCN2C(=O)c3cc(-c4cc(F)c(F)cc4F)ccc3NC(=O)C2C1` (centres unmarked) [Compound A92, 2-(3,3-Dimethylbutyryl)-7-(2,4,5-trifluorophenyl)-1,3,4,11a-tetrahydro-2H,10H-2,4a,10-triaza-dibenzo[a,d]cycloheptene-5,11-dione], for which the remaining activity at 10 µM turned out to be 1% and the IC50 was greater than 1 µM. As to `N[C@@H](CO)C(=O)N1CCN2C(=O)c3cc(-c4ccc(Cl)cc4F)ccc3NC(=O)[C@H]2C1` [Compound A122, (R)-2-((S)-2-Amino-3-hydroxypropionyl)-7-(4-chloro-2-fluorophenyl)-1,3,4,11a-tetrahydro-2H,10H-2,4a,10-triazadibenzo[a,d]cycloheptene-5,11-dione], the remaining activity at 10 µM is 69%. Regarding `CN1CCC(N2CCC[C@H]2C(=O)N2CCN3C(=O)c4cc(-c5ccc(Cl)cc5F)ccc4NC(=O)[C@H]3C2)CC1` [Compound A118, (R)-7-(4-Chloro-2-fluorophenyl)-2-[(S)-1-(1-methylpiperidin-4-yl)pyrrolidine-2-carbonyl]-1,3,4,11a-tetrahydro-2H,10H-2,4a,10-triaza-dibenzo[a,d]cycloheptene-5,11-dione], the remaining activity at 10 µM is 8% and the IC50 fell in the range of 0.1 to 1 µM. In the same order, the values of `CC(C)(C)[C@H](NC1CCNCC1)C(=O)N1CCN2C(=O)c3cc(-c4ccc(Cl)cc4F)ccc3NC(=O)[C@H]2C1` [Compound 48, (R)-7-(4-Chloro-2-fluorophenyl)-2-[(S)-3,3-dimethyl-2-(piperidin-4-ylamino)butyryl]-1,3,4,11a-tetrahydro-2H,10H-2,4a,10-triazadibenzo[a,d]cycloheptene-5,11-dione] are 2% and 0.1 to 1 µM. Regarding `CC(C)(C)CC(=O)N1CCN2C(=O)c3cc(-c4ccc(Cl)c(F)c4)ccc3NC(=O)C2C1` (centres unmarked) [Compound A94, 7-(4-Chloro-3-fluorophenyl)-2-(3,3-dimethylbutyryl)-1,3,4,11a-tetrahydro-2H,10H-2,4a,10-triaza-dibenzo[a,d]cycloheptene-5,11-dione], the remaining activity at 10 µM was -18% and the IC50 was greater than 1 µM. The corresponding values for `CC(C)(C)CCN1CCN2C(=O)c3cc(-c4ccc(Cl)cc4F)ccc3NC(=O)C2C1` (centres unmarked) [Compound A33] are 72% and greater than 1 µM. The corresponding values for `O=C([C@@H]1CCCN1C1CCNCC1)N1CCN2C(=O)c3cc(-c4ccc(Cl)cc4F)ccc3N(CCO)C(=O)[C@H]2C1` [Compound A159] are 16% and greater than 1 µM. The corresponding values for `CC(C)(C)CC(=O)N1CCN2C(=O)c3cc(-c4ccc(Cl)cc4F)ccc3N(CC(N)=O)C(=O)[C@H]2C1` [Compound A150] are 3% and 0.1 to 1 µM. Consider `O=C(O)CCC(=O)N1CCN2C(=O)c3cc(-c4ccc(Cl)cc4)ccc3NC(=O)[C@@H]2C1` [Compound B4], for which the remaining activity at 10 µM came to 71%. For `O=C1Nc2ccc(-c3ccccc3F)cc2C(=O)N2CCN(C(=O)c3ccc4[nH]nnc4c3)CC12` (centres unmarked) [Compound A14, 2-(1H-Benzotriazole-5-carbonyl)-7-(2-fluorophenyl)-1,3,4,11a-tetrahydro-2H,10H-2,4a,10-triaza-dibenzo[a,d]cycloheptene-5,11-dione], the remaining activity at 10 µM is 38% and the IC50 is greater than 1 µM. On to `O=C1Nc2ccc(-c3ccc(Cl)cc3)cc2C(=O)N2CCN(C(=O)c3ccccn3)CC12` (centres unmarked) [Compound A51, 7-(4-Chlorophenyl)-2-(pyridine-2-carbonyl)-1,3,4,11a-tetrahydro-2H,10H-2,4a,10-triaza-dibenzo[a,d]cycloheptene-5,11-dione], for which the remaining activity at 10 µM is 37% and the IC50 was greater than 1 µM. The corresponding values for `Cc1ccc(-c2ccc3c(c2)C(=O)N2CCN(C(=O)[C@@H]4CCCN4C4CCNCC4)C[C@@H]2C(=O)N3)c(F)c1F` [Compound A101, (R)-7-(2,3-Difluoro-4-methylphenyl)-2-((S)-1-piperidin-4-ylpyrrolidine-2-carbonyl)-1,3,4,11a-tetrahydro-2H,10H-2,4a,10-triaza-dibenzo[a,d]cycloheptene-5,11-dione] are 8% and 0.1 to 1 µM.

`O=C1Nc2ccc(-c3ccc(Cl)cc3)cc2C(=O)N2CCN(C(=O)C3CSC(c4ccncc4)N3)CC12` (centres unmarked) [Compound A71, 7-(4-Chlorophenyl)-2-(2-pyridin-4-ylthiazolidine-4-carbonyl)-1,3,4,11a-tetrahydro-2H,10H-2,4a,10-triazadibenzo[a,d]cycloheptene-5,11-dione]: the remaining activity at 10 µM was 7% and the IC50 is greater than 1 µM.

In the case of `CN(C)CCN1C(=O)[C@H]2CN(C(=O)[C@@H]3CCCN3C3CCNCC3)CCN2C(=O)c2cc(-c3ccc(Cl)cc3F)ccc21` [Compound A156], the remaining activity at 10 µM is 7% and the half-inhibitory concentration (IC50) was 0.1 to 1 µM. The corresponding values for `CC(C)[C@H](O)C(=O)N1CCN2C(=O)c3cc(-c4ccc(Cl)cc4)ccc3NC(=O)C2C1` (stereo partly drawn) [Compound A74, 7-(4-Chlorophenyl)-2-((S)-2-hydroxy-3-methyl-butyryl)-1,3,4,11a-tetrahydro-2H,10H-2,4a,10-triaza-dibenzo[a,d]cycloheptene-5,11-dione] are -2% and greater than 1 µM.

For the compound `CC(C)(C)CC(=O)N1CCN2C(=O)c3cc(-c4ccccc4F)ccc3NC(=O)[C@@H]2C1` [Compound A17, (S)-2-(3,3-Dimethylbutyryl)-7-(2-fluorophenyl)-1,3,4,11a-tetrahydro-2H,10H-2,4a,10-triaza-dibenzo[a,d]cycloheptene-5,11-dione], the IC50 fell in the range of 0.1 to 1 µM.

As for `O=C1Nc2ccc(-c3ccc(Cl)cc3F)cc2C(=O)N2CCN(C(=O)[C@@H]3C[C@@H](O)CN3)CC12` (stereo partly drawn) [Compound A70, 7-(4-Chloro-2-fluorophenyl)-2-((2S,4R)-4-hydroxy-pyrrolidine-2-carbonyl)-1,3,4,11a-tetrahydro-2H,10H-2,4a,10-triazadibenzo[a,d]cycloheptene-5,11-dione], the remaining activity at 10 µM was 28% and the IC50 is greater than 1 µM.

Take `O=C(O)CCCC(=O)N1CCN2C(=O)c3cc(-c4ccco4)ccc3NC(=O)[C@H]2C1` [Compound B7]: the remaining activity at 10 µM came to 70%. As to `Cc1nc(C(=O)N2CCN3C(=O)c4cc(-c5ccc(Cl)cc5)ccc4NC(=O)C3C2)c(N)s1` (centres unmarked) [Compound A37, 2-(5-Amino-2-methylthiazole-4-carbonyl)-7-(4-chlorophenyl)-1,3,4,11a-tetrahydro-2H,10H-2,4a,10-triazadibenzo[a,d]cycloheptene-5,11-dione], the remaining activity at 10 µM came to 66% and the IC50 was greater than 1 µM. The corresponding values for `O=C1Nc2ccc(-c3ccc(Cl)cc3)cc2C(=O)N2CCN(C(=O)[C@H](O)C3CCCCC3)CC12` (stereo partly drawn) [Compound A112, 7-(4-Chlorophenyl)-2-((R)-2-cyclohexyl-2-hydroxy-acetyl)-1,3,4,11a-tetrahydro-2H,10H-2,4a,10-triazadibenzo[a,d]cycloheptene-5,11-dione] are 5% and greater than 1 µM.

In the case of `CC(C)(C)CC(=O)N1CCN2C(=O)c3cc(-c4ccc(C(F)(F)F)cc4F)ccc3NC(=O)C2C1` (centres unmarked) [Compound A84, 2-(3,3-Dimethylbutyryl)-7-(2-fluoro-4-trifluoromethyl-phenyl)-1,3,4,11a-tetrahydro-2H,10H-2,4a,10-triazadibenzo[a,d]cycloheptene-5,11-dione], the remaining activity at 10 µM was determined as 29%.

Regarding `CC(C)(C)CC(=O)N1CCN2C(=O)c3cc(-c4ccccc4)ccc3NC(=O)C2C1` (centres unmarked) [Compound A131, 2-(3,3-Dimethylbutyryl)-7-phenyl-1,3,4,11a-tetrahydro-2H,10H-2,4a,10-triaza-dibenzo[a,d]cycloheptene-5,11-dione], the remaining activity at 10 µM is 14% and the IC50 is greater than 1 µM. Regarding `O=C1Nc2ccc(-c3ccccc3)cc2C(=O)N2CCN(C(=O)C3CCCC3)C[C@@H]12` [Compound B6], the remaining activity at 10 µM worked out at 85%. Regarding `CC(C)(C)CC(=O)N1CCN2C(=O)c3cc(-c4ccc(Cl)cc4F)ccc3NC(=O)C2C1` (centres unmarked) [Compound 10, 7-(4-chloro-2-fluorophenyl)-2-(3,3-dimethylbutyryl)-1,3,4,11a-tetrahydro-2H,10H-2,4a,10-triazadibenzo[a,d]cycloheptene-5,11-dione], the remaining activity at 10 µM came out at 1% and the IC50 lay in the range of 0.1 to 1 µM. On to `CC(C)(C)CC(=O)N1CCN2C(=O)c3cc(-c4cc(C(F)(F)F)ccc4F)ccc3NC(=O)C2C1` (centres unmarked) [Compound A83, 2-(3,3-Dimethylbutyryl)-7-(2-fluoro-5-trifluoromethyl-phenyl)-1,3,4,11a-tetrahydro-2H,10H-2,4a,10-triazadibenzo[a,d]cycloheptene-5,11-dione], for which the remaining activity at 10 µM was determined as 81%.

As to `CC(C)(C)CC(=O)N1CCN2C(=O)c3cc(-c4ccc(Cl)cc4F)ccc3N(CCO)C(=O)[C@H]2C1` [Compound A152], the remaining activity at 10 µM was 3% and the half-maximal inhibitory concentration (IC50) lay within 0.1 to 1 µM.

As to `CC(C)[C@H](N)C(=O)N1CCN2C(=O)c3cc(-c4ccc(Cl)cc4F)ccc3NC(=O)[C@H]2C1` [Compound A63, (R)-2-((S)-2-Amino-3-methylbutyryl)-7-(4-chloro-2-fluorophenyl)-1,3,4,11a-tetrahydro-2H,10H-2,4a,10-triazadibenzo[a,d]cycloheptene-5,11-dione], the remaining activity at 10 µM turned out to be 67% and the IC50 was greater than 1 µM.
